Reference: PubChem BioAssay AID248 (DTP/NCI, 2004)
Several values for one entry are separate records, joined by “and”; a condition that tells them apart may be missing. Equal entries are not always repeated. Inconclusive results and toxic doses are left out. Rule as the data show it: active = T/C of 150% or more; inactive = T/C below 125%.

System: L1210 leukemia ip in BDF1 mice, survival T/C
Experiment: NCI In Vivo Anticancer Drug Screen. Data for tumor model L1210 Leukemia (intraperitoneal) in B6D2F1 (BDF1) mice
Conditions: endpoint: mean survival time, higher = longer survival
In short: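 Tumor was transplanted into mice, which were then dosed with test compound or vehicle alone. Survival was recorded for each group, and the treated figure was expressed relative to the control figure.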

[1] = dose: 100.0 mg/kg/injection, schedule: Q01DX001 (ip), vehicle: saline with Tween-80
[2] = dose: 100.0 mg/kg/injection, schedule: Q01DX009 (ip), vehicle: saline with Tween-80
[3] = dose: 100.0 mg/kg/injection, schedule: Q04DX003 (ip), vehicle: saline with Tween-80
[4] = dose: 200.0 mg/kg/injection, schedule: Q01DX009 (ip), vehicle: saline with Tween-80
[5] = dose: 200.0 mg/kg/injection, schedule: Q04DX003 (ip), vehicle: saline with Tween-80
[6] = dose: 400.0 mg/kg/injection, schedule: Q04DX003 (ip), vehicle: saline with Tween-80
[7] = dose: 400.0 mg/kg/injection, schedule: Q01DX009 (ip), vehicle: saline with Tween-80
[8] = dose: 100.0 mg/kg/injection, schedule: Q04DX002 (ip), vehicle: Klucel (hydroxypropylcellulose) (HPC)
[9] = dose: 200.0 mg/kg/injection, schedule: Q04DX002 (ip), vehicle: Klucel (hydroxypropylcellulose) (HPC)
[10] = dose: 400.0 mg/kg/injection, schedule: Q04DX002 (ip), vehicle: Klucel (hydroxypropylcellulose) (HPC)
[11] = dose: 50.0 mg/kg/injection, schedule: Q04DX002 (ip), vehicle: Klucel (hydroxypropylcellulose) (HPC)
[12] = dose: 100.0 mg/kg/injection, schedule: Q04DX003 (ip), vehicle: Klucel (hydroxypropylcellulose) (HPC)
[13] = dose: 200.0 mg/kg/injection, schedule: Q04DX003 (ip), vehicle: Klucel (hydroxypropylcellulose) (HPC)
[14] = dose: 200.0 mg/kg/injection, schedule: Q01DX001 (ip), vehicle: saline with Tween-80
[15] = dose: 400.0 mg/kg/injection, schedule: Q01DX001 (ip), vehicle: saline with Tween-80
[16] = dose: 400.0 mg/kg/injection, schedule: Q04DX003 (ip), vehicle: Klucel (hydroxypropylcellulose) (HPC)

Measured: T/C

CCCCCCCCCCCC(=O)NC(=S)Nc1ccc(C)c(C)c1
inactive: dose: 50.0 mg/kg/injection, schedule: Q01DX001 (ip), vehicle: saline with Tween-80 86 % of control | [1] 91 % of control | [2] 90 % of control and 91 % of control | dose: 100.0 mg/kg/injection, schedule: Q04DX002 (ip), vehicle: saline with Tween-80 103 % of control and 91 % of control | [3] 93 % of control | [4] 103 % of control and 105 % of control | dose: 200.0 mg/kg/injection, schedule: Q04DX002 (ip), vehicle: saline with Tween-80 94 % of control and 88 % of control | [5] 90 % of control | dose: 400.0 mg/kg/injection, schedule: Q04DX002 (ip), vehicle: saline with Tween-80 94 % of control and 91 % of control | [6] 88 % of control

O=S(=O)(N=C1C=CC(=NS(=O)(=O)c2ccccc2)C=C1)c1ccccc1
inactive: dose: 100.0 mg/kg/injection, schedule: Q01DX009 (ip), vehicle: gum acacia 98 % of control | dose: 100.0 mg/kg/injection, schedule: Q04DX003 (ip), vehicle: gum acacia 98 % of control | dose: 200.0 mg/kg/injection, schedule: Q01DX009 (ip), vehicle: gum acacia 97 % of control | dose: 200.0 mg/kg/injection, schedule: Q04DX003 (ip), vehicle: gum acacia 98 % of control | dose: 400.0 mg/kg/injection, schedule: Q04DX003 (ip), vehicle: gum acacia 95 % of control

Cc1cc(-c2cc(C)sc2C)c(C)s1
inactive: [2] 87 % of control | [3] 96 % of control | [4] 92 % of control | [5] 94 % of control | [7] 94 % of control | [6] 96 % of control

CC1=C/C(=N\NC(N)=O)CCC1
inactive: [8] 97 % of control | [9] 86 % of control | [10] 105 % of control

CSC(NC(=O)c1ccc([N+](=O)[O-])cc1)C(N)=O (stereo not given)
inactive: [11] 102 % of control | [8] 106 % of control | [9] 109 % of control and 113 % of control | [10] 109 % of control

Cc1ccc(N=Nc2c(C)nn(C(N)=S)c2-c2ccccc2)cc1
inactive: dose: 75.0 mg/kg/injection, schedule: Q01DX001 (ip), vehicle: saline 94 % of control | dose: 150.0 mg/kg/injection, schedule: Q01DX001 (ip), vehicle: saline 90 % of control

CC(=O)C1CCC2C3CC=C4CC(O)CCC4(C)C3CCC12C (stereo not given)
inactive: [8] 91 % of control | [12] 89 % of control | [9] 100 % of control | [13] 92 % of control | [10] 91 % of control

CCOC(=O)NC(NC(=O)OCC)C(Br)(Br)Br
inactive: dose: 25.0 mg/kg/injection, schedule: Q01DX001 (ip), vehicle: Klucel (hydroxypropylcellulose) (HPC) 112 % of control | dose: 25.0 mg/kg/injection, schedule: Q04DX002 (ip), vehicle: Klucel (hydroxypropylcellulose) (HPC) 104 % of control | dose: 50.0 mg/kg/injection, schedule: Q01DX001 (ip), vehicle: Klucel (hydroxypropylcellulose) (HPC) 112 % of control | [11] 106 % of control | dose: 100.0 mg/kg/injection, schedule: Q01DX001 (ip), vehicle: Klucel (hydroxypropylcellulose) (HPC) 108 % of control | [8] 104 % of control | dose: 200.0 mg/kg/injection, schedule: Q01DX001 (ip), vehicle: Klucel (hydroxypropylcellulose) (HPC) 116 % of control | [9] 102 % of control

O=C1CCCC(=S)N1
inactive: dose: 50.0 mg/kg/injection, schedule: Q01DX001 (ip), vehicle: carboxymethylcellulose (CMC) 113 % of control | dose: 100.0 mg/kg/injection, schedule: Q01DX001 (ip), vehicle: carboxymethylcellulose (CMC) 106 % of control

O=[N+]([O-])c1ccc(Oc2cc(Cl)c(Cl)cc2Cl)c([N+](=O)[O-])c1
inactive: dose: 100.0 mg/kg/injection, schedule: Q01DX001 (ip), vehicle: other 90 % of control | dose: 100.0 mg/kg/injection, schedule: Q04DX003 (ip), vehicle: other 98 % of control | dose: 200.0 mg/kg/injection, schedule: Q01DX001 (ip), vehicle: other 92 % of control | dose: 200.0 mg/kg/injection, schedule: Q04DX003 (ip), vehicle: other 95 % of control | dose: 222.0 mg/kg/injection, schedule: Q01DX Z (ip), vehicle: methylcellulose (MC) 100 % of control | dose: 333.0 mg/kg/injection, schedule: Q01DX Z (ip), vehicle: methylcellulose (MC) 91 % of control | dose: 400.0 mg/kg/injection, schedule: Q01DX001 (ip), vehicle: other 89 % of control and 91 % of control | dose: 400.0 mg/kg/injection, schedule: Q04DX003 (ip), vehicle: other 95 % of control | dose: 500.0 mg/kg/injection, schedule: Q01DX Z (ip), vehicle: methylcellulose (MC) 91 % of control

O=C(O)c1cocc1C(=O)O
inactive: [8] 91 % of control | [9] 91 % of control

O=C1C(=O)N(CN2CCCCC2)c2ccccc21
inactive: [2] 98 % of control | [3] 109 % of control | [4] 113 % of control | [5] 109 % of control | [7] 104 % of control | [6] 108 % of control

Cc1cccc(NC(=O)CCc2ccc(Cl)cc2)n1
inactive: dose: 100.0 mg/kg/injection, schedule: Q01DX001 (ip), vehicle: saline 95 % of control

CCOC(CN=Cc1cccc2ccccc12)OCC
inactive: [3] 95 % of control | [5] 93 % of control | [6] 95 % of control

O=C(Oc1ccncc1)c1ccccc1
inactive: [1] 92 % of control | [14] 96 % of control | [15] 103 % of control

NC(=O)OCCCCCCOC(N)=O
inactive: [3] 90 % of control | [5] 90 % of control | [6] 87 % of control

O=C(c1ccc(Cl)cc1)c1nc2ccccc2[nH]1
inactive: [8] 95 % of control | [9] 95 % of control | [10] 103 % of control

FC(F)(F)c1nc(Cl)c2cn[nH]c2n1
inactive: dose: 44.0 mg/kg/injection, schedule: Q01DX Z (ip), vehicle: methylcellulose (MC) 104 % of control | dose: 66.0 mg/kg/injection, schedule: Q01DX Z (ip), vehicle: methylcellulose (MC) 103 % of control | dose: 100.0 mg/kg/injection, schedule: Q01DX Z (ip), vehicle: methylcellulose (MC) 100 % of control

COc1cccc(C=Nc2ccc(N(C)C)cc2)c1O.COc1cccc(C=Nc2ccc(N(C)C)cc2)c1O.[Co]
inactive: dose: 50.0 mg/kg/injection, schedule: Q04DX003 (ip), vehicle: saline with Tween-80 88 % of control | [3] 88 % of control | [5] 98 % of control

COc1ccc(C2(C#N)CCCCC2)cc1
inactive: dose: 100.0 mg/kg/injection, schedule: Q01DX009 (ip), vehicle: Klucel (hydroxypropylcellulose) (HPC) 109 % of control | [12] 97 % of control | dose: 200.0 mg/kg/injection, schedule: Q01DX009 (ip), vehicle: Klucel (hydroxypropylcellulose) (HPC) 98 % of control | [13] 100 % of control | dose: 400.0 mg/kg/injection, schedule: Q01DX009 (ip), vehicle: Klucel (hydroxypropylcellulose) (HPC) 94 % of control | [16] 101 % of control

COc1ccc(OC)c(NC(=O)NCCCl)c1
inactive: [12] 101 % of control | [13] 98 % of control | [16] 87 % of control

Cc1cc(C)c2c(C#N)cn(-c3ccc([N+](=O)[O-])cc3)c2n1
inactive: [1] 98 % of control | [14] 109 % of control | dose: 200.0 mg/kg/injection, schedule: Q01DX001 (ip), vehicle: saline 102 % of control | [15] 95 % of control | dose: 400.0 mg/kg/injection, schedule: Q01DX001 (ip), vehicle: saline 94 % of control
